This note sets out measurements from patent publication US10208089B2, “Modulation of complement activity” (priority 2014, dated 2019).

SMILES strings stand for the structures. Starred links: 1 amine or outer side, 2 acyl side, 3 side chain; linkers in the order of their positions; H or OH if unused. Positions of bridges follow the written chain, without caps; N, C: chain ends. Non-standard residues stand in square brackets, D forms with d. Residues, ends and D or L forms follow the SMILES beside them. Ala(1H-tetrazol-5-yl) = N[C@@H](Cc1nnn[nH]1)C(=O)O; Trp(7-aza) = N[C@@H](Cc1c[nH]c2ncccc12)C(=O)O; mXylylene = c1cc(C[*:1])cc(C[*:2])c1; dPhg = N[C@@H](C(=O)O)c1ccccc1; Chg = N[C@H](C(=O)O)C1CCCCC1; Phg = N[C@H](C(=O)O)c1ccccc1; Tle = CC(C)(C)[C@H](N)C(=O)O; Nva = CCC[C@H](N)C(=O)O Where only a bound is given, the exact number is not on record here.

The target in the experiment is C5 (Homo sapiens, UniProt P01031). The experiment in a line: Human hemolysis assay (RBC lysis assay using complete human sera). The experiment is classed as cell-based. Further details: with complete human sera (Complement Technology, Tyler Tex.) and polypeptides; tissue Complement Technology, Tyler Tex; host or cells: complete human serum. The conditions noted are these: inhibition of lysis of antibody-sensitized sheep erythrocytes, complete human sera.
C5, sequence (P01031 19-1676): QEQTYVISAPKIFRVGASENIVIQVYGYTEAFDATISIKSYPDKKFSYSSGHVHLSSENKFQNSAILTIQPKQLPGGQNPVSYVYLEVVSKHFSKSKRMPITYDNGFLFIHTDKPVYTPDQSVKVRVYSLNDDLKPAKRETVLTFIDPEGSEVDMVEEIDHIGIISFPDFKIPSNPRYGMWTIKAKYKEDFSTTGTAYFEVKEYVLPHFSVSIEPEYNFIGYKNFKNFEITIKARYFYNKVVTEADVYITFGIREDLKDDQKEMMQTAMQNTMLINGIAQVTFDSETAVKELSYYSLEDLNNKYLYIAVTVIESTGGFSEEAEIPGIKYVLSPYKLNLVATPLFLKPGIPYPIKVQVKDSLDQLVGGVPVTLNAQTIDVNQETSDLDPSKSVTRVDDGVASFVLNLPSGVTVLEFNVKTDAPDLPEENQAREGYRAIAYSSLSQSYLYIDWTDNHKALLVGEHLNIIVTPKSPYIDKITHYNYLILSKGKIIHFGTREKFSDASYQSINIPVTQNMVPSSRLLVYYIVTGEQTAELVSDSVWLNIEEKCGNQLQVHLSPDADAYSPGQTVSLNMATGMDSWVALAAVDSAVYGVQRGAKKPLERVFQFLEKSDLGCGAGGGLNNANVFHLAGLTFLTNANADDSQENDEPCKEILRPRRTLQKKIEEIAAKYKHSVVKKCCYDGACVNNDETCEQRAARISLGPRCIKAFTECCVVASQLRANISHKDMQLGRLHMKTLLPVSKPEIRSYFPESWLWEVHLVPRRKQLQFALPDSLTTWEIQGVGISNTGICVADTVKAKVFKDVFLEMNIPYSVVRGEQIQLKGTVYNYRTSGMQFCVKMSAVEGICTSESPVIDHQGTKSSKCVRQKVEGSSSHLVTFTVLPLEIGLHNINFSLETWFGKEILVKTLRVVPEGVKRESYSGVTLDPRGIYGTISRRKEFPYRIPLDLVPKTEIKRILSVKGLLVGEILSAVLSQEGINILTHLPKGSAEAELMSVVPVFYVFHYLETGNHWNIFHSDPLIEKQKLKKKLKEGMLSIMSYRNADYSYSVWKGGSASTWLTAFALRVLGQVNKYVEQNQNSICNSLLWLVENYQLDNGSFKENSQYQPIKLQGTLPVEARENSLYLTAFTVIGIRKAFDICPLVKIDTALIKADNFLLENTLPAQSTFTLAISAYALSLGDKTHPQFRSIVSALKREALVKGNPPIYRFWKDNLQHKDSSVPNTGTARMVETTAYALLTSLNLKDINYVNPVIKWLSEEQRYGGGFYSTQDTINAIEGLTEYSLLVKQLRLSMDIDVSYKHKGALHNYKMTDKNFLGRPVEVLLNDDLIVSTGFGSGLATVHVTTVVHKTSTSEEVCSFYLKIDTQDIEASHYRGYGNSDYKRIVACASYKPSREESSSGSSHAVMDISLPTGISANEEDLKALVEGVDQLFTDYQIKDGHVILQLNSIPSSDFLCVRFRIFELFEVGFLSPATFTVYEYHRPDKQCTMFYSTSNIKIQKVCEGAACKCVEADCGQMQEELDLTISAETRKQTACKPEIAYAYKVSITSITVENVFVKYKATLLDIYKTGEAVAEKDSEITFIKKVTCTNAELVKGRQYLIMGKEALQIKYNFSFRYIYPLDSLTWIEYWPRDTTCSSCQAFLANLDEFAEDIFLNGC
A word on the IC50: it is the concentration at which inhibition is half-maximal. As to `CCC[C@H](NC(=O)[C@H](NC(=O)[C@@H]1CCCN1C(=O)[C@H](Cc1ccc(O)cc1)NC(=O)[C@H](CCC(=O)O)NC(=O)[C@H](Cc1c[nH]c2ncccc12)NC(=O)[C@H](Cc1ccc(O)cc1)NC(=O)[C@@H](NC(=O)[C@H](CC(=O)O)NC(=O)[C@@H]1CSCc2cccc(c2)CSC[C@H](NC(C)=O)C(=O)N[C@@H](C(C)C)C(=O)N[C@@H](CCC(=O)O)C(=O)N[C@@H](C)C(=O)N[C@@H](Cc2ccccc2)C(=O)N1)C(C)(C)C)c1ccccc1)C(N)=O` [Compound R3154, [mXylyl(1,6)]Ac-C-V-E-A-F-C-D-Tbg-Y-azaTrp-E-Y-P-(D-Phg)-Nvl-NH2] (Ac-CVEAFCD[Tle]Y[Trp(7-aza)]EYP[dPhg][Nva]-NH2; linker 1-6 via mXylylene), the 50% inhibitory concentration (IC50) was 592 nM.
Regarding `CCC[C@H](NC(=O)[C@@H](NC(=O)[C@@H]1CCCN1C(=O)[C@H](Cc1ccc(O)cc1)NC(=O)[C@H](CCC(=O)O)NC(=O)[C@H](Cc1c[nH]c2ncccc12)NC(=O)[C@H](Cc1ccc(O)cc1)NC(=O)[C@@H](NC(=O)[C@H](CC(=O)O)NC(=O)[C@@H]1CSCc2cccc(c2)CSC[C@H](NC(C)=O)C(=O)N[C@@H](C(C)C)C(=O)N[C@@H](CCC(=O)O)C(=O)N[C@@H](CCCNC(=N)N)C(=O)N[C@@H](C)C(=O)N1)C(C)(C)C)c1ccccc1)C(N)=O` [Compound R3155, [mXylyl(1,6)]Ac-C-V-E-R-A-C-D-Tbg-Y-azaTrp-E-Y-P-Phg-Nvl-NH2] (Ac-CVERACD[Tle]Y[Trp(7-aza)]EYP[Phg][Nva]-NH2; linker 1-6 via mXylylene), the concentration for half-maximal inhibition (IC50) worked out at 1530 nM.
With `CCC[C@H](NC(=O)[C@H](NC(=O)[C@@H]1CCCN1C(=O)[C@H](Cc1ccc(O)cc1)NC(=O)[C@H](CCC(=O)O)NC(=O)[C@H](Cc1c[nH]c2ncccc12)NC(=O)[C@H](Cc1ccc(O)cc1)NC(=O)[C@@H](NC(=O)[C@H](CC(=O)O)NC(=O)[C@@H]1CSCc2cccc(c2)CSC[C@H](NC(C)=O)C(=O)N[C@@H](C(C)C)C(=O)N[C@@H](CCC(=O)O)C(=O)N[C@@H](CCCNC(=N)N)C(=O)N[C@@H](C)C(=O)N1)C(C)(C)C)c1ccccc1)C(N)=O` [Compound R3156, [mXylyl(1,6)]Ac-C-V-E-R-A-C-D-Tbg-Y-azaTrp-E-Y-P-(D-Phg)-Nvl-NH2] (Ac-CVERACD[Tle]Y[Trp(7-aza)]EYP[dPhg][Nva]-NH2; linker 1-6 via mXylylene), the concentration for half-maximal inhibition (IC50) is more than 10000 nM.
For the compound `CCC[C@H](NC(=O)[C@@H](NC(=O)[C@@H]1CCCN1C(=O)[C@H](Cc1ccc(O)cc1)NC(=O)[C@H](CCC(=O)O)NC(=O)[C@H](Cc1c[nH]c2ncccc12)NC(=O)[C@H](Cc1ccc(O)cc1)NC(=O)[C@@H](NC(=O)[C@H](C)NC(=O)[C@@H]1CSCc2cccc(c2)CSC[C@H](NC(C)=O)C(=O)N[C@@H](C(C)C)C(=O)N[C@@H](CCC(=O)O)C(=O)N[C@@H](CCCNC(=N)N)C(=O)N[C@@H](Cc2ccccc2)C(=O)N1)C(C)(C)C)c1ccccc1)C(N)=O` [Compound R3157, [mXylyl(1,6)]Ac-C-V-E-R-F-C-A-Tbg-Y-azaTrp-E-Y-P-Phg-Nvl-NH2] (Ac-CVERFCA[Tle]Y[Trp(7-aza)]EYP[Phg][Nva]-NH2; linker 1-6 via mXylylene), the IC50 was found to be 84.5 nM.
Consider `CCC[C@H](NC(=O)[C@H](NC(=O)[C@@H]1CCCN1C(=O)[C@H](Cc1ccc(O)cc1)NC(=O)[C@H](CCC(=O)O)NC(=O)[C@H](Cc1c[nH]c2ncccc12)NC(=O)[C@H](Cc1ccc(O)cc1)NC(=O)[C@@H](NC(=O)[C@H](C)NC(=O)[C@@H]1CSCc2cccc(c2)CSC[C@H](NC(C)=O)C(=O)N[C@@H](C(C)C)C(=O)N[C@@H](CCC(=O)O)C(=O)N[C@@H](CCCNC(=N)N)C(=O)N[C@@H](Cc2ccccc2)C(=O)N1)C(C)(C)C)c1ccccc1)C(N)=O` [Compound R3158, [mXylyl(1,6)]Ac-C-V-E-R-F-C-A-Tbg-Y-azaTrp-E-Y-P-(D-Phg)-Nvl-NH2] (Ac-CVERFCA[Tle]Y[Trp(7-aza)]EYP[dPhg][Nva]-NH2; linker 1-6 via mXylylene), for which the concentration for half-maximal inhibition (IC50) was determined as 327 nM.
Next, `CC(=O)N[C@H]1CSCc2cccc(c2)CSC[C@@H](C(=O)N[C@@H](CC(=O)O)C(=O)N[C@H](C(=O)N[C@@H](Cc2ccc(O)cc2)C(=O)N[C@@H](Cc2c[nH]c3ncccc23)C(=O)N[C@@H](CCC(=O)O)C(=O)N[C@@H](Cc2ccc(O)cc2)C(=O)N2CCC[C@H]2C(=O)N[C@H](C(=O)N[C@@H](CCCCN)C(N)=O)c2ccccc2)C(C)(C)C)NC(=O)[C@H](Cc2ccccc2)NC(=O)[C@H](CCCNC(=N)N)NC(=O)[C@H](CCC(=O)O)NC(=O)[C@H](C)NC1=O` [Compound R3161, [mXylyl(1,6)]Ac-C-A-E-R-F-C-D-Tbg-Y-azaTrp-E-Y-P-Phg-K-NH2]: 7 nM; `CC(=O)N[C@H]1CSCc2cccc(c2)CSC[C@@H](C(=O)N[C@@H](CC(=O)O)C(=O)N[C@H](C(=O)N[C@@H](Cc2ccc(O)cc2)C(=O)N[C@@H](Cc2c[nH]c3ncccc23)C(=O)N[C@@H](CCC(=O)O)C(=O)N[C@@H](Cc2ccc(O)cc2)C(=O)N2CCC[C@H]2C(=O)N[C@@H](C(=O)N[C@@H](CCCCN)C(N)=O)c2ccccc2)C(C)(C)C)NC(=O)[C@H](Cc2ccccc2)NC(=O)[C@H](CCCNC(=N)N)NC(=O)[C@H](CCC(=O)O)NC(=O)[C@H](C)NC1=O` [Compound R3162, [mXylyl(1,6)]Ac-C-A-E-R-F-C-D-Tbg-Y-azaTrp-E-Y-P-(D-Phg)-K-NH2]: 16.5 nM.
For `CCCCCCCCCCCC(=O)NCCCC[C@H](NC(=O)[C@@H](NC(=O)[C@@H]1CCCN1C(=O)[C@H](Cc1ccc(O)cc1)NC(=O)[C@H](CCC(=O)O)NC(=O)[C@H](Cc1c[nH]c2ncccc12)NC(=O)[C@H](Cc1ccc(O)cc1)NC(=O)[C@@H](NC(=O)[C@H](CC(=O)O)NC(=O)[C@@H]1CSCc2cccc(c2)CSC[C@H](NC(C)=O)C(=O)N[C@@H](C)C(=O)N[C@@H](CCC(=O)O)C(=O)N[C@@H](CCCNC(=N)N)C(=O)N[C@@H](Cc2ccccc2)C(=O)N1)C(C)(C)C)c1ccccc1)C(N)=O` [Compound R3164, [mXylyl(1,6)]Ac-C-A-E-R-F-C-D-Tbg-Y-azaTrp-E-Y-P-Phg-(Lys-C12)-NH2] the value was 36 nM.
As for `CCCCCCCC(=O)NCCCC[C@H](NC(=O)[C@@H](NC(=O)[C@@H]1CCCN1C(=O)[C@H](Cc1ccc(O)cc1)NC(=O)[C@H](CCC(=O)O)NC(=O)[C@H](Cc1c[nH]c2ncccc12)NC(=O)[C@H](Cc1ccc(O)cc1)NC(=O)[C@@H](NC(=O)[C@H](CC(=O)O)NC(=O)[C@@H]1CSCc2cccc(c2)CSC[C@H](NC(C)=O)C(=O)N[C@@H](C)C(=O)N[C@@H](CCC(=O)O)C(=O)N[C@@H](CCCNC(=N)N)C(=O)N[C@@H](Cc2ccccc2)C(=O)N1)C(C)(C)C)c1ccccc1)C(N)=O` [Compound R3166, [mXylyl(1,6)]Ac-C-A-E-R-F-C-D-Tbg-Y-azaTrp-E-Y-P-Phg-(Lys-C8)-NH2], the IC50 came to 17.5 nM.
As for `CCC[C@H](NC(=O)[C@@H](NC(=O)[C@@H]1CCCN1C(=O)[C@H](Cc1ccc(O)cc1)NC(=O)[C@H](CCC(=O)O)NC(=O)[C@H](Cc1c[nH]c2ncccc12)NC(=O)[C@H](Cc1ccc(O)cc1)NC(=O)[C@@H](NC(=O)[C@H](Cc1nnn[nH]1)NC(=O)[C@@H]1CSCc2cccc(c2)CSC[C@H](NC(C)=O)C(=O)N[C@@H](C(C)C)C(=O)N[C@@H](CCC(=O)O)C(=O)N[C@@H](CCCNC(=N)N)C(=O)N[C@@H](Cc2ccccc2)C(=O)N1)C(C)(C)C)C1CCCCC1)C(N)=O` [Compound R3168, [mXylyl(1,6)]Ac-C-V-E-R-F-C-Asp(T)-Tbg-Y-azaTrp-E-Y-P-Chg-Nvl-NH2] (Ac-CVERFC[Ala(1H-tetrazol-5-yl)][Tle]Y[Trp(7-aza)]EYP[Chg][Nva]-NH2; linker 1-6 via mXylylene), the 50% inhibitory concentration (IC50) was found to be 7.5 nM.
